From patent US9433663B2, “Mobilization of hematopoietic stem cells” (Children's Hospital Medical Center, priority 2008, dated 2016)

Experiments:
[1] = test system: WASP; test: phosphorylation of WASP in 32D progenitors; format: cell-based, murine; conditions: FIG. 7D
Description: FIG. 7D. CASIN treatment in 32 progenitors led to dampened phosphorylation of WASP, […].

[2] = test system: C57Bl/6 mice; test: mobilization of colony-forming progenitors to peripheral blood, CFU-C assay; format: in vivo; conditions: intraperitoneal 2.4 mg/Kg, 40 hrs post administration, in comparison to vehicle control
Description: Whether CASIN administration can induce mobilization of HSC/Ps to peripheral blood of C57Bl/6 mice, mimicking the phenotype observed in Cdc42 conditional knockout mice, was evaluated. First of all, mobilization of hematopoietic progenitor cells was examined by CFU-C assays functionally (FIG. 3a). […] Secondarily, to further explore the ability of CASIN to mobilize LT-HSC which is crucial for long-term repopulation of the mobilized cells, serial transplantations were carried out, where 20 million PB from CASIN-mobilized C57Bl/6 mice was transplanted into primary recipient of NOD/SCID mice, and subsequent secondary and tertiary transplants were finished as well using prior BMs (FIG. 3c). Donor chimerisms were assessed by using H2K^b congenic marker which is positive for donors of C57Bl/6 strain and negative for recipients of NOD/SCID strain. […] Therefore, the studies show CASIN can efficiently mobilize colony-forming hematopoietic progenitors and LT-HSCs with self-renewal and multi-lineage differentiation capacity. Thirdly, to further investigate the potential of CASIN to vacate the BM niche after mobilization, six-color staining of the BM cells was performed from C57Bl/6 mice with or without CASIN treatment followed by FACS analysis. […] Therefore, a transient decrease in BM and a concomitant increase in peripheral organs of HSCs would be beneficial to facilitating the subsequent HSC transplantation.
To determinate the hematopoietic progenitor content in the PB of mobilized C57Bl/6 mice, colony-forming unit assay was performed as described previously. Briefly, 200 ul PB was plated in triplicate into methylcellulose (MethocultM3434; StemCell Technology, Vancouver, BC, Canada). Colonies were then counted 7 d later.

[3] = test system: other Rho GTPases and Ras; test: Example 7 effector pull-down in LDBM and HCB cells, other Rho GTPases and Ras; format: cell-based, murine LDBM and human HCB cells
Description: To exclude the inhibitory effect of CASIN on other Rac isoforms, Rho GTPases, and Ras, broader effector pull-down experiments are performed on these possible candidates with gradient doses of CASIN in LDBM and HCB cells as previously described. In addition, CASIN has been indicated as a noncovalent and reversible inhibitor in Xenopus egg extract. To confirm it, reversibility is monitored in this set of effector pull-down experiments. Four treatment groups are divided for both LDBM and HCB cells: (1) Serum starvation 20 h; (2) Serum starvation 20 h+growth factors stimulation; (3) Serum starvation 20 h+CASIN treatment (doses: 1, 2.5, 5, and 10 μM) 3 h+growth factor stimulation; (4) Serum starvation 20 h+CASIN treatment (doses: 1, 2.5, 5, and 10 μM) 3 h+wash the cells, and culture for another 3 h for recovery+growth factors stimulation. […] Bound proteins are analyzed by immunoblotting with respective antibodies (BD Biosciences). Furthermore, changes of downstream targets of Cdc42, Rac, and Rho under the four treatment groups are assessed. Phosphorylation status of PAK1, WASP (effectors of Cdc42), WAVE (effector of Rac), and ROCK (effector of Rho) are monitored by western blots using respective antibodies.

[4] = test system: LT-HSCs; test: Example 9 double-labeling of LT-HSC localization in the niche; format: in vivo, mice; conditions: 48 hours or earlier after mobilization
Description: These studies use a double-labeling technique to monitor the localization change of LT-HSCs upon mobilization by CASIN.
AMD3100 and G-CSF induced mobilization are used as positive controls, while the control medium is used as a negative control. DBA/2, PeP3b, and C57Bl/6 mice are used in parallel to test the effects of variable mobilization capacity on the movement of LT-HSCs.
Basically, mice are fed BrdU (0.8 mg/ml) in drinking water for 10 days, followed by a chase period of seventy days, after which only the slow cycling LT-HSCs are found to retain the BrdU-label. At the end of the chase period of BrdU labeling, CASIN, AMD3100, G-CSF, or control is administrated on the mice and 3H-TdR is pulse-labeled 1 h before sacrificing the mice. Mice are sacrificed at different time points post administration of mobilizers or control in order to reflect the kinetic changes of HSC localization upon mobilization. And then bone sections are immunochemically stained with anti-BrdU antibody and alkaline phosphatase-labeled secondary IgG, followed by visualization with red substrate. In the meantime, autoradiography is performed to visualize cell incorporated with 3H-TdR. A cell is considered to be double-labeled if it contains greater than 5 silver grains per nucleus over a bright nuclear pattern of red staining.

[5] = target: Cdc42 (Mus musculus, UniProt P60766); test: Cdc42 activity (effector pulldown) in primary murine fibroblasts; format: cell-based; parameters: endogenous in cells; host or cells: murine low density bone marrow (LDBM) cells; conditions: Cdc42GAP^−/− primary murine fibroblasts
Description: To investigate the Cdc42-dependent cytoskeleton rearrangement, Swiss 3T3 fibroblasts were used since it was abundantly elaborated in Swiss 3T3 fibroblats that bradykinin induces actin filopodia formation through activating Cdc42, whereas PDGF activates Rac1 and induces Rac-mediated membrane lamellipoidia, and LPA responsible for RhoA activation, eliciting RhoA-medicated formation of actin stress fibers and focal adhesion assembly (Ridley, A. J. et al. Cell 70, 401-410 (1992); Ridley, A. J. et al. Cell 70, 389-399 (1992); Kozma, R. et al. Mol Cell Biol 15, 1942-1952 (1995)).
To analyze the effects of CASIN on the formation of active GTP-bound Cdc42, RhoA, and Rac1, effector pulldown assays were carried out as described previously. Cdc42GAP^−/− MEF, LDBM, CD34^+ hCB cells were treated with CASIN at doses of 5-20 μM in parallel with vehicle control for 2 hrs after overnight starvation, and stimulated with cytokines subsequently. And then cells were lysed in a buffer containing 20 mM Tris-HCL (pH 7.6), 100 mM NaCl, 1% Triton X-100, 10 mM MgCl2, 2 mM NaF, and Protease inhibitor cocktail (Roche Diagnostics). Lysates were incubated with GST-P21-binding domain of PAK1 for RAC1-GTP and Cdc42-GTP, and GST-RBD domain of Rhotekin for RhoA-GTP respectively. […]

Cdc42, sequence (P60766 whole entry): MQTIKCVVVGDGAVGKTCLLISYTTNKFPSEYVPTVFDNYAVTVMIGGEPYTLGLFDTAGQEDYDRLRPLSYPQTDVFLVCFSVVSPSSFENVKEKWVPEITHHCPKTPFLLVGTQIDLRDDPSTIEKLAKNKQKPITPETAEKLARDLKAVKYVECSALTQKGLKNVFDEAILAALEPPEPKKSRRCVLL

Q: How did the “phosphorylation of WASP” value [1] turn out when `OCCNC1CCCc2c1[nH]c1ccc(-c3ccccc3)cc21` (centres unmarked) [CASIN] was run?
A: dampened

Q: What about the “mobilization of colony-forming progenitors to the peripheral blood” value [2] of the same compound?
A: more than six-fold

Q: And the “activities of other Rho GTPases and Ras” value [3]?
A: without affecting

Q: And the “number of BrdU-labeled LT-HSC in bone marrow niche” value [4]?
A: reduced

Q: And the Cdc42 activity [5]?
A: dose-dependently inhibited
